In patent US9962350B2, “Agent for improving normal development rate of fertilized eggs” (SBI Pharmaceuticals Co., Ltd., priority 2014, dated 2018):

Tests used:
[1] = system: fertilized eggs obtained by the mating between female mice of the BDF2 lineage and male mice of the BDF1 lineage; assay: In vitro culture of natural mating-derived fertilized eggs (BDF2 females x BDF1 males) with ALA; embryo development; assay type: cell-based, mouse; conditions: 1 μM ALA
Experimental: Aside therefrom, a drop of 100 μL of M16 medium covered with mineral oil (manufactured by Sigma-Aldrich Corp.) and supplemented with ALA hydrochloride (manufactured by SBI Pharmaceuticals Co., Ltd.) at a final concentration of 0 μM (control), 0.1 μM, 0.5 μM, or 1 μM was prepared in a 35 mm Petri dish and left standing at 37° C. in a CO2 incubator. 29 or 30 of the cumulus cell-free fertilized eggs were transferred to the resulting drop and cultured in vitro at 37° C. in a CO2 incubator.
After a lapse of 24 hours, 48 hours, 72 hours, and 96 hours from the start of the in vitro culture (0 hours) in the drop, the developmental stage of each embryo was determined by observation under a stereoscopic microscope, and the number of embryos whose development progressed normally and change in development rate were calculated. Specifically, the number of 2-cell eggs 24 hours after the start of the culture, the number of 3-cell, 4-cell, and 8-cell eggs 48 hours thereafter, the number of morulae and blastocysts 72 hours thereafter, and the number of blastocysts 96 hours thereafter were counted as embryos whose development progressed normally at each stage. The development rate with the number of fertilized eggs (0 hours) defined as 100% is shown in Table 3 and the graph of FIG. 1. For the evaluation of the development rate, the percentage of the number of embryos whose development progressed normally 24 hours, 48 hours, 72 hours, and 96 hours after the start of the culture was calculated with the number of fertilized eggs (0 hours) defined as 100%, and used as a normal development rate. Because of the natural mating, the number of recovered fertilized eggs (0 hours) includes unfertilized eggs to some extent, and there is the possibility that the content of unfertilized eggs varies accidentally among fertilized eggs (0 hours) populations distributed to the respective condition groups even if the fertilized eggs (0 hours) populations have been recovered in the same experiment. The development rate calculated with the number of 2-cell embryos 24 hours postfertilization defined as 100% was calculated in order to eliminate the influence of the content of unfertilized eggs that varies accidentally among the respective condition groups. In short, in order to calculate the development rate on the basis of the number of eggs that reliably started embryo development, the development rate with the number of 2-cell embryos 24 hours postfertilization defined as 100% is shown in Table 4 and the graph of FIG. 2. The results of each test group were statistically analyzed by the square test (chi-square test) with a statistically significant difference of p<0.01 (**) and p<0.05 (*).
The study was conducted in the same way as in Example 1 except that: the female mice used to harvest fertilized eggs were female mice of the BDF2 lineage (5 to 24 weeks old, body weight: 16 to 25 g) obtained by the mating between females and males of the BDF1 lineage (F1 of C57BL/6 females×DBA/2 males); the male mice used for mating were male mice of the BDF1 lineage (F1 of C57BL/6 females×DBA/2 males) (46 to 52 weeks old, body weight: 30 to 45 g); and 1 μM ALA was studied. The results are shown in Tables 5 to 7 below and FIGS. 3 and 4.

[2] = system: C57BL/6J fertilized eggs (natural mating); assay: Low-temperature in vitro culture of natural mating-derived fertilized eggs in KSOM or mWM with ALA; embryo development; assay type: cell-based, mouse; conditions: 35° C.
Experimental: According to a routine method of controlled ovarian hyperstimulation, 5 U (units) of equine chorionic gonadotropin (serum gonadotropin) (ASKA Pharmaceutical Co., Ltd.) were intraperitoneally administered to each female mouse of the C57BL/6J lineage (4 weeks old to 6 weeks old). 45 to 48 hours later, 5 U (units) of gonadotropin (human chorionic gonadotropin) (ASKA Pharmaceutical Co., Ltd.) were intraperitoneally administered thereto. Immediately after the administration of gonadotropin, each female mouse was mated with each male mouse of the C57BL/6J lineage. In the next morning, the oviducts were recovered into physiological saline (0.9% (w/v) NaCl) from the female mice that were able to be confirmed to have a vaginal plug. The oviducts were perfused with KSOM or mWM (both were purchased from ARK Resource Co., Ltd., http://www.ark-resource.co.jp/seihin/cryopreservation-liquid/) containing hyaluronidase (approximately 300 μg/ml, Sigma-Aldrich Corp.). After removal of cumulus cells from the obtained fertilized eggs, the fertilized eggs were recovered. In order to remove hyaluronidase, the fertilized eggs were washed with each medium (KSOM or mWM) and maintained in KSOM or mWM (ARK Resource Co., Ltd.) in an incubator of 37° C. and 5% CO2 until the fertilized eggs were recovered from all of the female mice. These two media used are typical media for use in mouse embryo culture. KSOM is a typical low glucose-containing medium, whereas mWM is a high glucose-containing medium.
20 to 50 of the recovered fertilized eggs were transferred into a drop (covered with mineral oil (Sigma-Aldrich Corp.)) consisting of 100 μl of ALA-unsupplemented or ALA-supplemented (1 μM or 3 μM) medium (KSOM or mWM). Subsequently, the fertilized eggs were cultured under two culture conditions: a condition of 37° C. and 5% CO2 and a condition of 35° C. and 5% CO2. The number of 2-cell eggs was counted 24 hours after the fertilized egg harvest, and the number of blastocysts was counted 96 hours thereafter. The development rate was evaluated in the same way as in Example 1. The results about KSOM are shown in Tables 8 to 10 and FIGS. 5 and 6. The results about mWM are shown in Tables 11 to 13 and FIGS. 7 and 8.

[3] = 1 μM ALA, mWM, 96 hr (blastocysts)
[4] = 3 μM ALA, mWM, 96 hr (blastocysts)

Structure (SMILES): NCC(=O)CCC(=O)O [ALA, 5-aminolevulinic acid]
- The number of developed embryos ([1]; 24 hr): 41
- development rate with the number of fertilized eggs (0 hr) defined as 100% ([1]; 24 hr): 82%
- The number of developed embryos ([1]; 48 hr): 41
- development rate with the number of 2-cell embryos 24 hours postfertilization defined as 100% ([1]; 48 hr): 100%
- development rate with the number of fertilized eggs (0 hr) defined as 100% ([1]; 48 hr): 82%
- The number of developed embryos ([1]; 72 hr): 40
- development rate with the number of fertilized eggs (0 hr) defined as 100% ([1]; 72 hr): 80%
- The number of developed embryos ([1]; 96 hr): 40
- development rate with the number of fertilized eggs (0 hr) defined as 100% ([1]; 96 hr): 80%
- development rate as compared with the ALA-unsupplemented control (in words) ([1]; number of fertilized eggs (0 hours) defined as 100%): elevate the development rate
- The number of developed embryos in KSOM ([2]; 1 μM ALA, 24 hr): 39
- development rate with the number of fertilized eggs (0 hr) in KSOM defined as 100% ([2]; 1 μM ALA, 24 hr): 67%
- The number of developed embryos in KSOM ([2]; 1 μM ALA, 48 hr): 23
- development rate with the number of 2-cell embryos 24 hours postfertilization in KSOM defined as 100% ([2]; 1 μM ALA, 48 hr): 59%
- development rate with the number of fertilized eggs (0 hr) in KSOM defined as 100% ([2]; 1 μM ALA, 48 hr): 40%
- The number of developed embryos in KSOM ([2]; 1 μM ALA, 96 hr): 6
- development rate with the number of 2-cell embryos 24 hours postfertilization in KSOM defined as 100% ([2]; 1 μM ALA, 96 hr (blastocysts)): 15%
- development rate with the number of fertilized eggs (0 hr) in KSOM defined as 100% ([2]; 1 μM ALA, 96 hr (blastocysts)): 10%
- The number of developed embryos in mWM ([2]; 1 μM ALA, mWM, 24 hr): 59
- development rate with the number of fertilized eggs (0 hr) in mWM defined as 100% ([2]; 1 μM ALA, mWM, 24 hr): 50%
- The number of developed embryos in mWM ([2]; 1 μM ALA, mWM, 48 hr): 48
- development rate with the number of 2-cell embryos 24 hours postfertilization in mWM defined as 100% ([2]; 1 μM ALA, mWM, 48 hr): 81%
- development rate with the number of fertilized eggs (0 hr) in mWM defined as 100% ([2]; 1 μM ALA, mWM, 48 hr): 39%
- elevation of development rate to blastocysts vs control (in words) ([2]; 1 μM ALA, mWM, 96 hours (Tables 12 and 13)): no significant elevation
- The number of developed embryos in mWM ([2]; 1 μM ALA, mWM, 96 hr): 27
- development rate with the number of 2-cell embryos 24 hours postfertilization in mWM defined as 100% [2, 3]: 46%
- development rate with the number of fertilized eggs (0 hr) in mWM defined as 100% [2, 3]: 22%
- The number of developed embryos in mWM ([2]; 3 μM ALA, mWM, 24 hr): 62
- development rate with the number of fertilized eggs (0 hr) in mWM defined as 100% ([2]; 3 μM ALA, mWM, 24 hr): 50%
- The number of developed embryos in mWM ([2]; 3 μM ALA, mWM, 48 hr): 62
- development rate with the number of 2-cell embryos 24 hours postfertilization in mWM defined as 100% ([2]; 3 μM ALA, mWM, 48 hr): 100%
- development rate with the number of fertilized eggs (0 hr) in mWM defined as 100% ([2]; 3 μM ALA, mWM, 48 hr): 50%
- The number of developed embryos in mWM ([2]; 3 μM ALA, mWM, 96 hr): 40
- development rate with the number of 2-cell embryos 24 hours postfertilization in mWM defined as 100% [2, 4]: 65%
- development rate with the number of fertilized eggs (0 hr) in mWM defined as 100% [2, 4]: 32%
